Laboratory results as given in ChEMBL document CHEMBL3044612, “Design, synthesis and biological evaluation of some novel 3-cinnamoyl-4-hydroxy-2H-chromen-2-ones as antimalarial agents” (Med Chem Res, 2012).
≈ marks a conversion by molar mass, not a printed value.

What was measured:
[1] = Selectivity index, ratio of IC50 for human K562 cells to IC50 for chloroquine-resistant Plasmodium falciparum W2; assay type: toxicity, cell-based; details: read-out: Ratio IC50
[2] = Selectivity index, ratio of IC50 for human K562 cells to IC80 for chloroquine-sensitive Plasmodium falciparum 3D7; assay type: toxicity, cell-based; details: read-out: Selectivity Index
[3] = Selectivity index, ratio of IC50 for human K562 cells to IC50 for chloroquine-sensitive Plasmodium falciparum 3D7; assay type: toxicity, cell-based; details: read-out: Ratio IC50
[4] = tested on: K562; experiment: Cytotoxicity against Homo sapiens (human) K562 cells by Sulphorhodamine B assay; assay type: cell-based
[5] = tested on: Plasmodium falciparum; experiment: Antimalarial activity against chloroquine-resistant Plasmodium falciparum W2 by in vitro cell culture method; assay type: functional, organism-based
[6] = tested on: Plasmodium falciparum; experiment: Antimalarial activity against chloroquine-sensitive Plasmodium falciparum 3D7 by in vitro cell culture method; assay type: functional, organism-based
[7] = tested on: Plasmodium falciparum; experiment: Antimalarial activity against Plasmodium falciparum by [3H]-hypoxanthine incorporation assay; assay type: functional, organism-based

O=C(/C=C/c1ccc([N+](=O)[O-])cc1)c1c(O)c2ccccc2oc1=O
selectivity ratio [1]: 38.5 | selectivity ratio [2]: 22 | selectivity ratio [3]: 49.7 | IC50 [4]: 154 µg/mL (≈ 457 µM) | IC50 [5]: 4 µg/mL (≈ 11.9 µM) | IC50 [6]: 3.1 µg/mL (≈ 9.19 µM) | IC80 [6]: 7 µg/mL (≈ 20.8 µM)

CN(C)c1ccc(/C=C/C(=O)c2c(O)c3ccccc3oc2=O)cc1
selectivity ratio [1]: 2.29 | selectivity ratio [2]: 7.08 | selectivity ratio [3]: 9.1 | IC50 [4]: 156 µg/mL (≈ 467 µM) | IC50 [5]: 68.2 µg/mL (≈ 203 µM) | IC50 [6]: 17.2 µg/mL (≈ 51.3 µM) | IC80 [6]: 22.1 µg/mL (≈ 65.9 µM)

O=C(/C=C/c1cccc([N+](=O)[O-])c1)c1c(O)c2ccccc2oc1=O
selectivity ratio [1]: 2.8 | selectivity ratio [2]: 6.02 | selectivity ratio [3]: 9.72 | IC50 [4]: 152 µg/mL (≈ 450 µM) | IC50 [5]: 54.1 µg/mL (≈ 160 µM) | IC50 [6]: 15.6 µg/mL (≈ 46.3 µM) | IC80 [6]: 25.2 µg/mL (≈ 74.7 µM)

COc1cc(/C=C/C(=O)c2c(O)c3ccccc3oc2=O)ccc1O
IC50 [5]: 61.3 µg/mL (≈ 181 µM) | IC50 [6]: 11.2 µg/mL (≈ 33.1 µM) | IC80 [6]: 27.2 µg/mL (≈ 80.4 µM)

O=c1ccc2ccc(O)c(O)c2o1 [DAPHNETIN]
IC50 [7]: 25 µM

COc1ccc(/C=C/C(=O)c2c(O)c3ccccc3oc2=O)cc1OC
selectivity ratio [1]: 3.25 | selectivity ratio [2]: 4.73 | selectivity ratio [3]: 11.5 | IC50 [4]: 71.4 µg/mL (≈ 203 µM) | IC50 [5]: 22 µg/mL (≈ 62.4 µM) | IC50 [6]: 6.2 µg/mL (≈ 17.6 µM) | IC80 [6]: 15.1 µg/mL (≈ 42.9 µM)

O=C(/C=C/c1cccc(Cl)c1)c1c(O)c2ccccc2oc1=O
IC50 [5]: 6.2 µg/mL (≈ 19 µM) | IC50 [6]: 4.2 µg/mL (≈ 12.9 µM) | IC80 [6]: 9 µg/mL (≈ 27.5 µM)

O=C(/C=C/c1ccco1)c1c(O)c2ccccc2oc1=O
IC50 [6]: > 50 µg/mL

COc1ccc(/C=C/C(=O)c2c(O)c3ccccc3oc2=O)c(OC)c1OC
selectivity ratio [1]: 0.83 | selectivity ratio [2]: 2.3 | selectivity ratio [3]: 5.48 | IC50 [4]: 46.6 µg/mL (≈ 122 µM) | IC50 [5]: 56.1 µg/mL (≈ 147 µM) | IC50 [6]: 8.5 µg/mL (≈ 22.2 µM) | IC80 [6]: 20.3 µg/mL (≈ 53.1 µM)

COc1cc(/C=C/C(=O)c2c(O)c3ccccc3oc2=O)cc(OC)c1OC
IC50 [4]: 103 µg/mL (≈ 270 µM) | IC50 [6]: > 50 µg/mL

Cc1ccc(/C=C/C(=O)c2c(O)c3ccccc3oc2=O)cc1
IC50 [5]: 5.1 µg/mL (≈ 16.6 µM) | IC50 [6]: 6.1 µg/mL (≈ 19.9 µM) | IC80 [6]: 15 µg/mL (≈ 49 µM)

O=C(/C=C/c1ccccc1)c1c(O)c2ccccc2oc1=O
selectivity ratio [1]: 9.02 | selectivity ratio [2]: 1.76 | selectivity ratio [3]: 4.49 | IC50 [4]: 99.2 µg/mL (≈ 339 µM) | IC50 [5]: 11 µg/mL (≈ 37.6 µM) | IC50 [6]: 22.1 µg/mL (≈ 75.6 µM) | IC80 [6]: 56.3 µg/mL (≈ 193 µM)

COc1ccc(/C=C/C(=O)c2c(O)c3ccccc3oc2=O)cc1
IC50 [5]: 35.8 µg/mL (≈ 111 µM) | IC50 [6]: 7.2 µg/mL (≈ 22.3 µM) | IC80 [6]: 6.2 µg/mL (≈ 19.2 µM)

O=C(/C=C/c1ccc(Cl)cc1Cl)c1c(O)c2ccccc2oc1=O
IC50 [4]: 149 µg/mL (≈ 413 µM) | IC50 [6]: > 50 µg/mL

CCN(CC)CCCC(C)Nc1ccnc2cc(Cl)ccc12 (stereo unspecified) [CHLOROQUINE]
IC50 [4]: 43.8 µg/mL (≈ 137 µM) | IC80 [6]: 0.0401 µg/mL (≈ 0.125 µM)

O=C(/C=C/c1ccc(Cl)cc1)c1c(O)c2ccccc2oc1=O
selectivity ratio [1]: 4.94 | selectivity ratio [2]: 2.26 | selectivity ratio [3]: 6.29 | IC50 [4]: 32.1 µg/mL (≈ 98.2 µM) | IC50 [5]: 6.5 µg/mL (≈ 19.9 µM) | IC50 [6]: 5.1 µg/mL (≈ 15.6 µM) | IC80 [6]: 14.2 µg/mL (≈ 43.5 µM)

O=C(/C=C/c1ccccc1Cl)c1c(O)c2ccccc2oc1=O
IC50 [4]: 124 µg/mL (≈ 378 µM) | IC50 [6]: > 50 µg/mL
